# Compound: COCC[n+]1c2c(n(Cc3cnccn3)c1C)C(=O)c1ccccc1C2=O [YM155] + CC1(C)CCC(c2ccc(Cl)cc2)=C(CN2CCN(c3ccc(C(=O)NS(=O)(=O)c4ccc(N[C@H](CCN5CCOCC5)CSc5ccccc5)c(S(=O)(=O)C(F)(F)F)c4)cc3)CC2)C1 [Navitoclax] (partner 0.5 µM)
# Assay: relative viability (nuclei count vs DMSO), 5 days (fraction); higher = more cells survive
# Conditions: first compound 0.06325 µM
# Method in brief: (§1)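 For relative viability, nuclei counts in treated wells were divided by those in vehicle wells. Lung cancer cell lines had been pin-tool dosed in 1536-well plates the day after seeding and cultured for 5 days, then fixed and stained in one step (final 0.05% Triton X-100, 1% formaldehyde, 1 ug/ml Hoechst) and imaged at 4×. Doses were one drug alone or a fixed anchor-drug dose plus five library-drug doses (not always all listed) in √10 steps, and values are duplicate-plate medians.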
row,Cell Line,relative viability
1,ChaGo-K-1,0.93
2,COR-L23,0.123
3,NCI-H2085,0.674
4,NCI-H460,0.903
5,BEN,0.0609
6,PC-3 [JPC-3],0.887
7,LC-2-ad,0.509

# Compound: COCC[n+]1c2c(n(Cc3cnccn3)c1C)C(=O)c1ccccc1C2=O [YM155] + COc1cc2c(Oc3ccc(NC(=O)C4(C(=O)Nc5ccc(F)cc5)CC4)cc3F)ccnc2cc1OCCCN1CCOCC1 [Foretinib] (partner 0.25 µM)
# Assay: as above
# Conditions: first compound 0.002 µM
# Method in brief: as §1
row,Cell Line,relative viability
1,LOU-NH91,0.92
2,NCI-H596,0.79
3,NCI-H1666,0.917
4,NCI-H23,0.643
5,NCI-H838,1.04
6,NCI-H322M,1.02
7,NCI-H1793,0.626
8,NCI-H441,0.859
9,SW 1573,0.986
10,201T,1.16
11,NCI-H1755,0.853
12,NCI-H1650,1.07
13,ChaGo-K-1,0.854
14,COR-L23,0.941
15,NCI-H2085,0.887
16,NCI-H460,0.957
17,BEN,0.622
18,PC-3 [JPC-3],1.04
19,LC-2-ad,0.923

# Same assay, conditions: first compound 0.006325 µM
row,Cell Line,relative viability
1,LOU-NH91,0.98
2,NCI-H596,0.833
3,NCI-H1666,0.996
4,NCI-H23,0.718
5,NCI-H838,1.02
6,NCI-H322M,1.08
7,NCI-H1793,0.875
8,NCI-H441,0.636
9,SW 1573,0.974
10,201T,1.11
11,NCI-H1755,0.934
12,NCI-H1650,1.11
13,ChaGo-K-1,0.984
14,COR-L23,0.866
15,NCI-H2085,0.922
16,NCI-H460,1.04
17,BEN,0.716
18,PC-3 [JPC-3],1.08
19,LC-2-ad,0.967

# Same assay, conditions: first compound 0.02 µM
row,Cell Line,relative viability
1,LOU-NH91,1.02
2,NCI-H596,0.946
3,NCI-H1666,0.988
4,NCI-H23,0.959
5,NCI-H838,1.09
6,NCI-H322M,0.931
7,NCI-H1793,0.675
8,NCI-H441,0.992
9,SW 1573,0.92
10,201T,1.05
11,NCI-H1755,0.884
12,NCI-H1650,0.932
13,ChaGo-K-1,0.926
14,COR-L23,0.658
15,NCI-H2085,0.915
16,NCI-H460,1.01
17,BEN,0.804
18,PC-3 [JPC-3],1.11
19,LC-2-ad,0.884

# Same assay, conditions: first compound 0.06325 µM
row,Cell Line,relative viability
1,LOU-NH91,0.937
2,NCI-H596,0.829
3,NCI-H1666,0.942
4,NCI-H23,0.785
5,NCI-H838,0.479
6,NCI-H322M,0.981
7,NCI-H1793,0.79
8,NCI-H441,0.43
9,SW 1573,0.877
10,201T,1.16
11,NCI-H1755,0.976
12,NCI-H1650,0.57
13,ChaGo-K-1,0.854
14,COR-L23,0.244
15,NCI-H2085,0.629

# — the supplement of paper PMC10307832
